According to publication PMC6128652, “Structure of the Cladosporium fulvum Avr4 effector in complex with (GlcNAc)6 reveals the ligand-binding mechanism and uncouples its intrinsic function from recognition by the Cf-4 resistance protein” (PLoS Pathogens, 2018):
Where a chain is given by its changes, count along the chain named.

Legend:
Settings in all cases: n = 3
[1] = biological target: T1, D94A (Fulvia fulva, UniProt Q00363, D94A); experiment: Isothermal titration calorimetry, (GlcNAc)6 titrated into protein in 10 mM Bis-Tris, pH 6.5, 100 mM NaCl, individual binding site model; temperature not given.
T1 construct: gene AVR4; true mature form Lys30-Gln115, E. coli Rosetta-gami B
T1 sequence (Q00363 30-115 D94A): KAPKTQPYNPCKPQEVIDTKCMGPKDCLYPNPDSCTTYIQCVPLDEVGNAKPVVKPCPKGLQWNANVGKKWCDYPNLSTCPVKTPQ
Protocol: (§1) All ITC experiments were performed on a TA Instruments low volume NanoITC with a 186uL reaction cell and a reference cell filled with degassed Milli-Q grade water. Reactions were run in a buffer containing 10mM Bis-Tris, pH 6.5, 100 mM NaCl. The reservoir solution was filled with protein solution and continuously stirred while Chitin hexasaccharide solutions titrated in 2.5μL aliquots for 19 injections, with an initial 1μL injection, for a total injection volume of 48.5μL. The carbohydrate solutions were made by dissolving the dry powder in buffer to a concentration of 20mM (confirmed using methods described above) and then diluted to the working concentration using the final buffer exchange flow through to match the buffers as closely as possible. The integrated heats, after correction for the heat of dilution were analyzed using the NanoAnalyze software from […]. An individual binding site model was used to fit the binding isotherm. All experiments were replicated a minimum of three times.
(§2) The parameters remained similar irrespectively of whether or not the purification tag was removed from the protein or whether a reverse titration was run, in which concentrated CfAvr4 was titrated into a dilute solution of (GlcNAc)6, with no evidence of allosteric or dimer dissociation (S2 Table and S6 Fig). The values are also in good agreement with previously reported data except for the stoichiometric ratio [9]. […] Due to this discrepancy, we took great care to verify the concentration of CfAvr4 using a Bradford assay, and quantitated the carbohydrate concentration.
(§3) A stock solution of the monomer of N-acetylglucosamine was prepared by dissolving the dry powder in a buffer containing 10 mM Bis-Tris, pH 6.5, 100 mM NaCl to a concentration of 0.100 g/L using analytic techniques. Standard solution of 0, 0.010, 0.025, 0.050, 0.075 g/L were prepared by serial dilutions. Using glass test tubes and pipets, 100 μL of each standard was mixed with 300μL of concentrated sulfuric acid and vortexed for 10 sec to mix. Solutions were incubated at RT for 10 min and then placed on ice to stop the reaction. […] Analytically prepared solution of the di- and tri-saccharide scaled linearly to the calibration curve. To determine the concentration of the chitin hexasaccharide solutions used in ITC, the solutions were diluted into the dynamic range of the calibration curve (S12 Fig) and subjected to the above procedure.

[2] = biological target: T2, K84A (Fulvia fulva, UniProt Q00363, K84A); experiment: as above
T2 construct: gene AVR4; true mature form Lys30-Gln115, E. coli Rosetta-gami B
T2 sequence (Q00363 30-115 K84A): T1 sequence (Q00363 30-115 D94A) with K55A, A65D
Protocol: as §1, §2, §3

[3] = biological target: T3, M51A (Fulvia fulva, UniProt Q00363, M51A); experiment: as above
T3 construct: gene AVR4; true mature form Lys30-Gln115, E. coli Rosetta-gami B
T3 sequence (Q00363 30-115 M51A): T1 sequence (Q00363 30-115 D94A) with M22A, A65D
Protocol: as §1, §2, §3

[4] = biological target: T4, N93A (Fulvia fulva, UniProt Q00363, N93A); experiment: as above
T4 construct: gene AVR4; true mature form Lys30-Gln115, E. coli Rosetta-gami B
T4 sequence (Q00363 30-115 N93A): T1 sequence (Q00363 30-115 D94A) with N64A, A65D
Protocol: as §1, §2, §3

[5] = biological target: T5, N95A (Fulvia fulva, UniProt Q00363, N95A); experiment: as above
T5 construct: gene AVR4; true mature form Lys30-Gln115, E. coli Rosetta-gami B
T5 sequence (Q00363 30-115 N95A): T1 sequence (Q00363 30-115 D94A) with A65D, N66A
Protocol: as §1, §2, §3

[6] = biological target: T6, P53A (Fulvia fulva, UniProt Q00363, P53A); experiment: as above
T6 construct: gene AVR4; true mature form Lys30-Gln115, E. coli Rosetta-gami B
T6 sequence (Q00363 30-115 P53A): T1 sequence (Q00363 30-115 D94A) with P24A, A65D
Protocol: as §1, §2, §3

[7] = biological target: T7, P87A (Fulvia fulva, UniProt Q00363, P87A); experiment: as above
T7 construct: gene AVR4; true mature form Lys30-Gln115, E. coli Rosetta-gami B
T7 sequence (Q00363 30-115 P87A): T1 sequence (Q00363 30-115 D94A) with P58A, A65D
Protocol: as §1, §2, §3

[8] = biological target: T8, Q69N (Fulvia fulva, UniProt Q00363, Q69N); experiment: as above
T8 construct: gene AVR4; true mature form Lys30-Gln115, E. coli Rosetta-gami B
T8 sequence (Q00363 30-115 Q69N): T1 sequence (Q00363 30-115 D94A) with Q40N, A65D
Protocol: as §1, §2, §3

[9] = biological target: T9, WT-CfAvr4 (Fulvia fulva, UniProt Q00363); experiment: as above
T9 construct: gene AVR4; true mature form Lys30-Gln115, N-terminal two 6x His tags and rhinovirus 3C site (tag retained, by contrast with the w/o tag row), E. coli Rosetta-gami B
Protocol: as §1, §2, §3

[10] = biological target: T10, WT-CfAvr4 w/o tag (Fulvia fulva, UniProt Q00363); experiment: as above
T10 construct: gene AVR4; true mature form Lys30-Gln115, purification tag removed with rhinovirus 3C protease, E. coli Rosetta-gami B
Protocol: as §1, §2, §3

[11] = biological target: T11, Y103F (Fulvia fulva, UniProt Q00363, Y103F); experiment: as above
T11 construct: gene AVR4; true mature form Lys30-Gln115, E. coli Rosetta-gami B
T11 sequence (Q00363 30-115 Y103F): T1 sequence (Q00363 30-115 D94A) with A65D, Y74F
Protocol: as §1, §2, §3

[12] = biological target: T12, Y67F (Fulvia fulva, UniProt Q00363, Y67F); experiment: as above
T12 construct: gene AVR4; true mature form Lys30-Gln115, E. coli Rosetta-gami B
T12 sequence (Q00363 30-115 Y67F): T1 sequence (Q00363 30-115 D94A) with Y38F, A65D
Protocol: as §1, §2, §3

[13] = biological target: T9, WT-CfAvr4; experiment: Isothermal titration calorimetry, reverse titration with concentrated CfAvr4 titrated into dilute (GlcNAc)6, 10 mM Bis-Tris, pH 6.5, 100 mM NaCl; temperature not given.; type: binding
From the text: as §2
All ITC experiments were performed on a TA Instruments low volume NanoITC with a 186uL reaction cell and a reference cell filled with degassed Milli-Q grade water. Reactions were run in a buffer containing 10mM Bis-Tris, pH 6.5, 100 mM NaCl. The reservoir solution was filled with protein solution and continuously stirred while Chitin hexasaccharide solutions titrated in 2.5μL aliquots for 19 injections, with an initial 1μL injection, for a total injection volume of 48.5μL. […] The integrated heats, after correction for the heat of dilution were analyzed using the NanoAnalyze software from ITC Technologies. […]

T9 sequence (Q00363 30-115): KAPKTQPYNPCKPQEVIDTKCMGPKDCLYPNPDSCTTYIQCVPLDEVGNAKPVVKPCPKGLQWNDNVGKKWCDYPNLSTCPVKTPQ
T10 sequence (Q00363 30-115): as above

CC(=O)N[C@H]1[C@H](O[C@H]2[C@H](O)[C@@H](NC(C)=O)[C@H](O[C@H]3[C@H](O)[C@@H](NC(C)=O)C(O)O[C@@H]3CO)O[C@@H]2CO)O[C@H](CO)[C@@H](O[C@@H]2O[C@H](CO)[C@@H](O[C@@H]3O[C@H](CO)[C@@H](O[C@@H]4O[C@H](CO)[C@@H](O)[C@H](O)[C@H]4NC(C)=O)[C@H](O)[C@H]3NC(C)=O)[C@H](O)[C@H]2NC(C)=O)[C@@H]1O (stereo partly drawn) [(GlcNAc)6, chitohexaose (chitin hexasaccharide, beta-1,4-linked N-acetylglucosamine hexamer)]
Kd [1]: 37.6 µM
Kd [2]: 121 µM
Kd [3]: 9.2 µM
Kd [4]: 44.7 µM
Kd [5]: 18.8 µM
Kd [6]: 11.3 µM
Kd [7]: 17.9 µM
Kd [8]: 131 µM
Kd [9]: 7.63 µM
Kd [10]: 6.73 µM
Kd [11]: 12.2 µM
Kd [12]: 6.86 µM
Kd [13]: 7.16 µM
